Reference: paper PMC8303886, “Polyphenylglyoxamide-Based Amphiphilic Small Molecular Peptidomimetics as Antibacterial Agents with Anti-Biofilm Activity” (International Journal of Molecular Sciences, 2021)
Where “and” joins values, the source holds several entries; their conditions need not be identical. Equal entries are not always repeated. Where two headings read alike, the source gives them in different places.

Key:
S. aureus (SA38) [1] = experiment: Minimum inhibitory concentration (MIC) assay against S. aureus; format: cell-based, Staphylococcus aureus; details: Staphylococcus aureus, S. aureus SA38; read-out: MIC S. aureus
[2] = tested on: MRC-5 normal human lung fibroblasts; experiment: MTT cytotoxicity assay; format: cell-based; details: Homo sapiens, MRC5, 72 h, 72 h drug incubation, read-out: IC50 against MRC-5 normal human lung fibroblasts
Procedure: The IC50 values of the tested peptidomimetics were determined from a dose-response curve. […] The therapeutic indices for each tested peptidomimetic against Gram-positive S. aureus and Gram-negative E. coli were calculated by dividing the IC50 value against human cells by the corresponding MIC value (Table 2).
The toxicity of the peptidomimetics against normal human lung fibroblasts MRC-5 cells was measured, using an MTT (3-(4,5-dimethylthiazol-2-yl)-2,5-diphenyltetrazolium bromide) (Sigma Aldrich, St. Louis, MO, USA) colorimetric assay. The cells were cultured in minimal essential medium (MEM, Invitrogen) containing 10% foetal bovine serum (FBS). The cells were maintained at 37 °C in 5% CO2 as an adherent monolayer and was passaged upon reaching confluence by standard cell culture techniques. MRC-5 cells were seeded at 5000 cells/well in 96-well plates to ensure full confluence (quiescence) and left overnight to adhere to the plate wells. The adherent cells were treated with 1–500 μM of compounds by dissolving in DMSO and serially diluting with media. TY-01 was used as the positive control. The final concentration of DMSO was 0.5% (v/v). After the 72 h drug incubation, […] stock MTT solution (5 mg/mL) was added, and the cells were incubated for another 3.5–4 h. The MTT solution containing media was carefully aspirated without displacing the purple crystals from the bottom, and […] acid-isopropanol was added to all wells and mixed slowly by shaking with an orbital shaker to dissolve the dark blue crystals. […] The determination of IC50 values was performed using GraphPad Prism 7 (GraphPad, San Diego, CA, USA). Each experiment was performed in triplicate and was repeated in three independent experiments.

E. coli (K12) [3] = experiment: Minimum inhibitory concentration (MIC) assay against E. coli; format: cell-based; details: Escherichia coli
P. aeruginosa (PAO1) [4] = experiment: Minimum inhibitory concentration (MIC) assay against P. aeruginosa; format: cell-based; details: Pseudomonas aeruginosa
[5] = tested on: pre-established S. aureus biofilms; experiment: Disruption of pre-established S. aureus biofilms (crystal violet assay); format: cell-based, Staphylococcus aureus
Procedure: As bacterial biofilms are one of the major challenges in treating bacterial infection, the ability of the synthesised peptidomimetics to disrupt pre-established biofilms was investigated.
(§1) Bacterial cultures (S. aureus and E. coli) were cultured in MHB at 37 °C with shaking at 120 rpm for 24 h. The resulting bacterial culture was washed twice with MHB with centrifugation after each wash. The bacterial solution was then diluted with fresh MHB to a turbidity of OD660 = 0.1 in MHB (equivalent to 10^8 colony forming unit (CFU)/mL of bacteria), followed by diluting to 10^6 CFU/mL in MHB. A total of 200 µL of the bacterial solution was dispensed to wells in a flat-bottom 96-well plate (Costar). The biofilm was then grown in the plate at 37 °C for 24 h. After incubation, loosely bound cells were washed away with 1× phosphate-buffered saline (PBS, pH 7.4). The biofilms were then supplemented with different concentrations of peptidomimetics dissolved in DMSO and incubated at 37 °C with shaking at 120 rpm for a further 24 h. Biofilms adhered on the plate substratum were quantified, using crystal violet staining as described previously. The experiment was performed in triplicate.

S. aureus (SA38) [6] = details: previously reported, cited from earlier work
E. coli (K12) [7] = tested on: E. coli (K12); parameters: method as in PMID 32947921; details: previously reported, cited from earlier work
P. aeruginosa (PAO1) [8] = tested on: P. aeruginosa (PAO1); parameters: method as in PMID 32947921; details: previously reported, cited from earlier work
[9] = tested on: pre-established E. coli biofilms; experiment: Disruption of pre-established E. coli biofilms (crystal violet assay); format: cell-based, Escherichia coli
Procedure: as §1

[10] = tested on: S. aureus cytoplasmic membrane; experiment: Cytoplasmic membrane permeability assay (diSC3-5 dye release); format: cell-based, Staphylococcus aureus; details: 1× and 2× MIC, read up to 15 min
Source text: This dye readily partitions into and aggregates in bacterial cell membranes, quenching its own fluorescence. However, structural damage to the bacterial cell membrane causes a loss in the membrane potential, which results in the leakage of dye from the bacterial cell membrane into the medium and an increase in fluorescence intensity. By detecting changes in fluorescence intensity, the integrity of the bacterial cytoplasmic membrane can be monitored.
Membrane potential sensitive dye diSC3–5 (3,3′-dipropylthiadicarbocyanine iodide), which penetrates inside bacterial cells depending on the membrane potential gradient of the cytoplasmic membrane, was used to determine the bacterial cytoplasmic membrane permeability following the procedure previously described with slight modification. Bacteria (S. aureus) were incubated in MHB with shaking at 37 °C for 16 h. After incubation, the bacteria were washed with 5 mM HEPES, supplemented with 20 mM glucose at pH 7.2 and diluted in the same buffer to an OD600 0.05–0.06 (equivalent to a final concentration of 10^7 CFU/mL bacteria). The diSC3–5 dye was added at 4 μM to the bacterial suspension. […] Fluorescence due to the release of dye was measured with a FLUOstar Omega (BMG Labtech) microplate reader at 5 min intervals at an excitation wavelength of 621 nm and an emission wavelength of 670 nm.

[11] = highest concentration tested 250 μM
[12] = 4× MIC, 24 h treatment (32 μM for 17c)

| Structure (SMILES) | MIC (S. aureus (SA38) [1]) | IC50 [2] | melting point [°C] | MIC (E. coli (K12) [3]) | MIC (P. aeruginosa (PAO1) [4]; [11]) [µM] | disruption of pre-established S. aureus biofilms ([5]; 1× MIC, 24 h treatment) | other results |
| --- | --- | --- | --- | --- | --- | --- | --- |
| CCCCCCCCS(=O)(=O)Nc1ccc(-c2ccc(-c3ccccc3)cc2)cc1C(=O)C(=O)NCCCNC(=N)N.Cl [Compound 33d, N-(3-Guanidinopropyl)-2-(4-(octylsulfonamido)-[1,1′:4′,1″-terphenyl]-3-yl)-2-oxoacetamide hydrochloride] | 16 µM and 10 µg/mL | 16.9 µM and 10.6 µg/mL | 49.6 to 50.1 |  |  |  |  |
| CCCCCCCCCCCCCCCCS(=O)(=O)Nc1ccc(-c2ccccc2)cc1C(=O)C(=O)NCCCNC(=N)N.Cl [Compound 35c, N-(3-Guanidinopropyl)-2-(4-(hexadecylsulfonamido)-[1,1′-biphenyl]-3-yl)-2-oxoacetamide hydrochloride] | > 250 µM and > 166 µg/mL |  | 74.5 to 77.1 |  |  |  |  |
| CCCCCCCCCCCCS(=O)(=O)Nc1ccc(-c2ccccc2)cc1C(=O)C(=O)NCCCNC(=N)N.Cl [Compound 34c, 2-(4-(Dodecylsulfonamido)-[1,1′-biphenyl]-3-yl)-N-(3-guanidinopropyl)-2-oxoacetamide hydrochloride] | 32 µM and 19 µg/mL |  | 73.2 to 73.5 |  |  |  |  |
| CCCCCCCCCCCCS(=O)(=O)Nc1ccc(Br)cc1C(=O)C(=O)NCCCNC(=N)N.Cl [Compound 34b, 2-(5-Bromo-2-(dodecylsulfonamido)phenyl)-N-(3-guanidinopropyl)-2-oxoacetamide hydrochloride] | 16 µM and 9.8 µg/mL | 21.1 µM and 14.8 µg/mL | 50 to 50.1 | > 250 µM and > 153 µg/mL | > 250 | 20–36% and 36% | MIC (P. aeruginosa (PAO1) [4]): > 153 µg/mL; disruption of pre-established S. aureus biofilms [5, 12]: 42% |
| CCCCCCCCS(=O)(=O)Nc1ccc(-c2ccccc2)cc1C(=O)C(=O)NCCC[N+](C)(C)C [Compound 16c] |  |  |  |  |  |  | MIC S. aureus (S. aureus (SA38) [6]; listed as 2, 16c): 16 μM and 10 μg/mL; MIC S. aureus (S. aureus (SA38) [6]; listed as 2): 16 µM; MIC S. aureus (S. aureus (SA38) [6]): 10 µg/mL; MIC E. coli (E. coli (K12) [7]; listed as 2, 16c): 32 μM and 21 μg/mL; MIC E. coli (E. coli (K12) [7]; listed as 2): 32 µM; MIC P. aeruginosa (P. aeruginosa (PAO1) [8]; listed as 2, 16c): 125 μM and 80 μg/mL; MIC P. aeruginosa (P. aeruginosa (PAO1) [8]): 125 μM and 80 μg/mL |
| CCCCCCCCCCCCS(=O)(=O)Nc1ccccc1C(=O)C(=O)NCCCNC(=N)N.Cl [Compound 34a, 2-(2-(Dodecylsulfonamido)phenyl)-N-(3-guanidinopropyl)-2-oxoacetamide hydrochloride] | 8 µM and 4.3 µg/mL | 27.2 µM and 14.5 µg/mL | 70 to 72.8 | 16 µM and 8.5 µg/mL | > 250 | 20–36% | MIC (P. aeruginosa (PAO1) [4]): > 133 µg/mL; disruption of pre-established S. aureus biofilms [5, 12]: 42%; disruption of pre-established E. coli biofilms ([9]; 1× and 2× MIC, 24 h treatment): unable to disrupt any pre-established E. coli biofilms; S. aureus cytoplasmic membrane disruption (increase in fluorescence intensity) [10]: most active compound at 2× MIC |
| CCCCCCCCCCCCCCCCS(=O)(=O)Nc1ccc(Br)cc1C(=O)C(=O)NCCCNC(=N)N.Cl [Compound 35b, 2-(5-Bromo-2-(hexadecylsulfonamido)phenyl)-N-(3-guanidinopropyl)-2-oxoacetamide hydrochloride] | > 250 µM and > 167 µg/mL |  | 64.3 to 66.6 |  |  |  |  |
| CCCCCCCCCCCCCCCCS(=O)(=O)Nc1ccc(-c2ccccc2)cc1C(=O)C(=O)NCCCN(C)C [Compound 12c, N-(3-(Dimethylamino)propyl)-2-(4-(hexadecylsulfonamido)-[1,1′-biphenyl]-3-yl)-2-oxoacetamide] | > 250 µM and > 153 µg/mL |  | 76.7 to 79.4 |  |  |  |  |
| CCCCCCCCCCCCS(=O)(=O)Nc1ccc(Br)cc1C(=O)C(=O)NCCC[N+](C)(C)C.[I-] [Compound 17b, 3-(2-(5-Bromo-2-(dodecylsulfonamido)phenyl)-2-oxoacetamido)-N,N,N-trimethylpropan-1-aminium iodide] | 8 µM and 5.6 µg/mL | 18.3 µM and 12.9 µg/mL |  | 32 µM and 22 µg/mL | > 250 | 20–36% | MIC (P. aeruginosa (PAO1) [4]): > 176 µg/mL; disruption of pre-established S. aureus biofilms [5, 12]: 38%; disruption of pre-established E. coli biofilms ([9]; 2× MIC, 24 h treatment (64 μM for 17c)): 31% |
| CCCCCCCCCCCCCCCCS(=O)(=O)Nc1ccccc1C(=O)C(=O)NCCC[N+](C)(C)C.[I-] [Compound 18a, 3-(2-(2-(Hexadecylsulfonamido)phenyl)-2-oxoacetamido)-N,N,N-trimethylpropan-1-aminium iodide] | 8 µM and 5.4 µg/mL | 52.4 µM and 35.6 µg/mL |  | > 250 µM | > 250 | 20–36% |  |
| CCCCCCCCS(=O)(=O)Nc1ccc(-c2ccccc2)cc1C(=O)C(=O)NCCCNC(=N)N [Compound 33c] |  |  |  |  |  |  | MIC S. aureus (S. aureus (SA38) [6]): 8 μM and 4.4 μg/mL; MIC E. coli (E. coli (K12) [7]): 63 μM and 35 μg/mL; MIC P. aeruginosa (P. aeruginosa (PAO1) [8]): 63 μM and 35 μg/mL |
